Source: the supplement of paper PMC10307832

Assays:
Assay in all cases: relative viability (nuclei count vs DMSO), 5 days (fraction); higher = more cells survive
[1] = compound: C[C@@H](N)c1ccc(C(=O)Nc2ccnc3[nH]ccc23)cc1 + Nc1nc2[nH]cc(CCc3ccc(C(=O)N[C@@H](CCC(=O)O)C(=O)O)cc3)c2c(=O)[nH]1 [Pemetrexed] (partner 0.2 µM)
Summary of the method: (§1)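 Lung cancer cell lines, seeded in 1536-well plates, were treated the following day by pin tool with a single drug or with five library-drug doses (not always all listed) in √10 steps on top of a fixed anchor-drug dose. Cells were fixed and nuclei stained in one step after 5 days, and nuclei were counted. Relative viability is the nuclei count for treated wells divided by that for vehicle wells, reported as medians of duplicate plates.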

[2] = compound: O[C@H]1CC[C@H](Nc2ncc3nc(Nc4c(F)cc(F)cc4F)n([C@H]4CCOC4)c3n2)CC1 [Tanzisertib] + Nc1nc2[nH]cc(CCc3ccc(C(=O)N[C@@H](CCC(=O)O)C(=O)O)cc3)c2c(=O)[nH]1 [Pemetrexed] (partner 0.2 µM)
Summary of the method: as §1

[3] = compound: O[C@H]1CC[C@H](Nc2ncc3nc(Nc4c(F)cc(F)cc4F)n([C@H]4CCOC4)c3n2)CC1 [Tanzisertib] + Cc1nc(Nc2ncc(C(=O)Nc3c(C)cccc3Cl)s2)cc(N2CCN(CCO)CC2)n1 [Dasatinib] (partner 0.075 µM)
Summary of the method: as §1

[4] = compound: C[C@@H](N)c1ccc(C(=O)Nc2ccnc3[nH]ccc23)cc1 + COc1cc2c(Oc3ccc(NC(=O)C4(C(=O)Nc5ccc(F)cc5)CC4)cc3F)ccnc2cc1OCCCN1CCOCC1 [Foretinib] (partner 0.25 µM)
Summary of the method: as §1

Cell Line | relative viability ([1]; first compound 0.04 µM) | relative viability ([1]; first compound 0.1265 µM) | relative viability ([1]; first compound 0.4 µM) | relative viability ([1]; first compound 1.265 µM) | relative viability ([1]; first compound 4 µM) | relative viability ([2]; first compound 0.08 µM) | relative viability ([2]; first compound 0.253 µM) | relative viability ([2]; first compound 0.8 µM) | relative viability ([2]; first compound 2.53 µM) | relative viability ([2]; first compound 8 µM) | relative viability ([3]; first compound 0.08 µM) | relative viability ([3]; first compound 0.253 µM) | relative viability ([3]; first compound 0.8 µM) | relative viability ([3]; first compound 2.53 µM) | relative viability ([3]; first compound 8 µM) | relative viability ([4]; first compound 0.04 µM) | relative viability ([4]; first compound 0.1265 µM) | relative viability ([4]; first compound 0.4 µM) | relative viability ([4]; first compound 1.265 µM) | relative viability ([4]; first compound 4 µM)
NCI-H3122 | 0.202 | 0.216 | 0.203 | 0.21 | 0.222 | 0.2 | 0.192 | 0.193 | 0.19 | 0.188 | 0.775 | 0.817 | 0.791 | 0.92 | 0.926 | 0.943 | 1.03 | 0.952 | 0.98 | 0.897
PC-3 [JPC-3] | 1.12 | 1.07 | 1.16 | 1.07 | 0.88 | 1.16 | 1.3 | 1.23 | 1.04 | 0.466 | 0.912 | 1.04 | 1.01 | 0.977 | 0.886 | 1.05 | 0.996 | 1.09 | 0.982 | 0.936
PC-14 | 0.139 | 0.126 | 0.138 |  | 0.169 | 0.134 | 0.131 | 0.129 | 0.0897 | 0.104 | 0.341 | 0.238 | 0.306 | 0.234 | 0.116 | 0.753 | 0.943 | 0.95 | 0.877 | 0.832
RERF-LC-KJ | 0.496 | 0.486 | 0.472 | 0.47 | 0.424 | 0.429 | 0.468 | 0.486 | 0.423 | 0.442 | 0.95 | 0.814 | 0.912 | 0.685 | 0.744 | 0.899 | 0.811 | 0.9 | 0.899 | 0.909
SK-LU-1 | 0.952 | 0.892 | 0.933 | 0.809 | 0.558 | 1.07 | 0.949 | 1.02 | 0.969 | 0.979 | 0.212 | 0.165 | 0.18 | 0.148 | 0.165 | 0.96 | 0.804 | 0.82 | 0.732 | 0.573
SK-MES-1 | 0.901 | 0.964 | 0.906 | 0.887 | 0.877 | 0.971 | 0.887 | 0.962 | 0.982 | 0.737 | 0.39 | 0.35 | 0.337 | 0.32 | 0.212 | 0.849 | 1.07 | 0.847 | 0.785 | 0.78
SW 900 | 0.465 | 0.478 | 0.475 | 0.5 | 0.474 |  | 0.51 | 0.501 | 0.451 | 0.464 | 0.692 | 0.574 | 0.585 | 0.621 | 0.496 | 1.1 | 0.972 | 0.867 | 0.86 | 0.762
SW 1573 | 0.792 | 0.792 | 0.845 | 0.582 | 0.703 | 0.809 | 0.84 | 0.805 | 0.839 | 0.683 | 0.595 | 0.662 | 0.46 | 0.552 | 0.513 | 1.06 | 0.964 | 1.19 | 0.93 | 0.849
